Patent US20240010639A1, “TRIAZINE DIONE DERIVATIVE, PREPARATION METHOD THEREFOR AND APPLICATION THEREOF IN MEDICINE” (Jiangsu Hengrui Pharmaceuticals Co., Ltd., priority 2020, published 2024)
Read-outs that look alike come from different tables or passages of the source.

Assay: Toxicokinetic evaluation of 14-day repeated intragastric administration to SD rats
Type: in vivo
Method: With SD rats as test animals, the plasma concentrations of the test compounds and the concentrations of the original forms of the compounds in the administration solutions were measured by LC/MS/MS at different time points after intragastric administration. The toxicokinetic performance of the compound disclosed herein was studied in SD rats and its toxicokinetic profile was evaluated.
24 SD rats, an equal number of males and females, evenly divided into 6 groups of 4, an equal number of males and females in each group, provided by Vital River Laboratory Animal Technology Co., Ltd.
A certain amount of the compound of Example 16 was measured out, and 15% PEG400 and 85% (10% TPGS+1% HPMC K100LV) were added to prepare a pale yellow homogenous suspension.
A certain amount of compound MYK-461 was measured out, and 0.5% MC was added to prepare a colorless clear solution.
The compound of Example 16 was intragastrically administered at doses of 5 mg/kg, 15 mg/kg and 30 mg/kg, at a volume of 10 mL/kg.
Compound MYK-461 was administered at doses of 0.5 mg/kg, 1.5 mg/kg and 3 mg/kg, at a volume of 10 mL/kg.
0.2-mL blood samples were collected from the orbit 0.5 h, 1.0 h, 2.0 h, 4.0 h, 8.0 h and 24.0 h after administration on day 1, and before administration and 0.5 h, 1.0 h, 2.0 h, 4.0 h, 8.0 hi, 24.0 h after administration on day 7 and day 14, placed into EDTA-K2 anticoagulation tubes, and centrifuged at 10,000 rpm for 1 min (4° C.), and plasma was isolated within 1 h and stored at −20° C. before analysis. The blood collection to centrifugation process was performed under ice bath conditions. Two hours after administration, feeding was resumed.
Determination of plasma concentrations in SD rats after intragastric administration of different concentrations of test compounds: 20 μL of SD rat plasma at each time point post-dose was mixed with 50 μL of an internal standard solution (internal standard for the compound of Example 16: 100 ng/mL verapamil; internal standard for compound MYK-461: 100 ng(mL camptothecin) and 200 μL of acetonitrile; the mixture was vortexed for 5 min and centrifuged at 3700 rpm for 10 min, and 1 μL of the supernatant was taken for LC/MS/MS analysis.

Cc1ccc(F)c([C@H](C)Nc2nc(=O)n(C3CCOCC3)c(=O)[nH]2)c1 [Example 16, (S)-6-((1-(2-Fluoro-5-methylphenyl)ethyl)amino)-3-(tetrahydro-2H-pyran-4-yl)-1,3,5-triazine-2,4(1H,3H)-dione]
accumulation after 14 days of repeated intragastric administration (in words): did not show significant accumulation | Vd/F at 1 day (both sexes, SD, rat, plasma, po, 5 mg/kg, repeated intragastric 5 mg/kg, Day 1, read-out: Apparent volume of distribution Vz/F): 1.27 L/kg | AUC (both sexes, SD, rat, plasma, po, 5 mg/kg, repeated intragastric 5 mg/kg, Day 1, read-out: Area under curve AUC): 30000 ng·h/mL | CL/F at 1 day (both sexes, SD, rat, plasma, po, 5 mg/kg, repeated intragastric 5 mg/kg, Day 1, read-out: Clearance CL/F): 3.06 mL/min/kg | half-life at 1 day (both sexes, SD, rat, plasma, po, 5 mg/kg, repeated intragastric 5 mg/kg, Day 1, read-out: Half-life T1/2 (converted)): 288 min | Cmax at 1 day (both sexes, SD, rat, plasma, po, 5 mg/kg, repeated intragastric 5 mg/kg, Day 1, read-out: Plasma concentration Cmax): 5740 ng/mL | MRT at 1 day (both sexes, SD, rat, plasma, po, 5 mg/kg, repeated intragastric 5 mg/kg, Day 1, read-out: Residence time MRT): 5 h | Vd/F at 7 day (both sexes, SD, rat, plasma, po, 5 mg/kg, repeated intragastric 5 mg/kg, Day 7, read-out: Apparent volume of distribution Vz/F): 1.28 L/kg | AUC at 7 day (both sexes, SD, rat, plasma, po, 5 mg/kg, repeated intragastric 5 mg/kg, Day 7, read-out: Area under curve AUC): 28100 ng·h/mL | CL/F at 7 day (both sexes, SD, rat, plasma, po, 5 mg/kg, repeated intragastric 5 mg/kg, Day 7, read-out: Clearance CL/F): 2.99 mL/min/kg | half-life at 7 day (both sexes, SD, rat, plasma, po, 5 mg/kg, repeated intragastric 5 mg/kg, Day 7, read-out: Half-life T1/2 (converted)): 294 min | Cmax at 7 day (both sexes, SD, rat, plasma, po, 5 mg/kg, repeated intragastric 5 mg/kg, Day 7, read-out: Plasma concentration Cmax): 4470 ng/mL | MRT at 7 day (both sexes, SD, rat, plasma, po, 5 mg/kg, repeated intragastric 5 mg/kg, Day 7, read-out: Residence time MRT): 6 h | Vd/F at 14 day (both sexes, SD, rat, plasma, po, 5 mg/kg, repeated intragastric 5 mg/kg, Day 14, read-out: Apparent volume of distribution Vz/F): 1.24 L/kg | AUC at 14 day (both sexes, SD, rat, plasma, po, 5 mg/kg, repeated intragastric 5 mg/kg, Day 14, read-out: Area under curve AUC): 29800 ng·h/mL | CL/F at 14 day (both sexes, SD, rat, plasma, po, 5 mg/kg, repeated intragastric 5 mg/kg, Day 14, read-out: Clearance CL/F): 2.8 mL/min/kg | half-life at 14 day (both sexes, SD, rat, plasma, po, 5 mg/kg, repeated intragastric 5 mg/kg, Day 14, read-out: Half-life T1/2 (converted)): 306 min | Cmax at 14 day (both sexes, SD, rat, plasma, po, 5 mg/kg, repeated intragastric 5 mg/kg, Day 14, read-out: Plasma concentration Cmax): 4860 ng/mL | MRT at 14 day (both sexes, SD, rat, plasma, po, 5 mg/kg, repeated intragastric 5 mg/kg, Day 14, read-out: Residence time MRT): 6.2 h | Vd/F (both sexes, SD, rat, plasma, po, 15 mg/kg, repeated intragastric 15 mg/kg, Day 1, read-out: Apparent volume of distribution Vz/F): 1.37 L/kg | AUC at 1 day (both sexes, SD, rat, plasma, po, 15 mg/kg, repeated intragastric 15 mg/kg, Day 1, read-out: Area under curve AUC): 80400 ng·h/mL | CL/F (both sexes, SD, rat, plasma, po, 15 mg/kg, repeated intragastric 15 mg/kg, Day 1, read-out: Clearance CL/F): 3.08 mL/min/kg | half-life at 1 day (both sexes, SD, rat, plasma, po, 15 mg/kg, repeated intragastric 15 mg/kg, Day 1, read-out: Half-life T1/2 (converted)): 306 min | Cmax at 1 day (both sexes, SD, rat, plasma, po, 15 mg/kg, repeated intragastric 15 mg/kg, Day 1, read-out: Plasma concentration Cmax): 16100 ng/mL | MRT at 1 day (both sexes, SD, rat, plasma, po, 15 mg/kg, repeated intragastric 15 mg/kg, Day 1, read-out: Residence time MRT): 5.4 h | Vd/F (both sexes, SD, rat, plasma, po, 15 mg/kg, repeated intragastric 15 mg/kg, Day 7, read-out: Apparent volume of distribution Vz/F): 2.13 L/kg | AUC (both sexes, SD, rat, plasma, po, 15 mg/kg, repeated intragastric 15 mg/kg, Day 7, read-out: Area under curve AUC): 70900 ng·h/mL | CL/F (both sexes, SD, rat, plasma, po, 15 mg/kg, repeated intragastric 15 mg/kg, Day 7, read-out: Clearance CL/F): 3.58 mL/min/kg | half-life (both sexes, SD, rat, plasma, po, 15 mg/kg, repeated intragastric 15 mg/kg, Day 7, read-out: Half-life T1/2 (converted)): 390 min | Cmax (both sexes, SD, rat, plasma, po, 15 mg/kg, repeated intragastric 15 mg/kg, Day 7, read-out: Plasma concentration Cmax): 16800 ng/mL | MRT (both sexes, SD, rat, plasma, po, 15 mg/kg, repeated intragastric 15 mg/kg, Day 7, read-out: Residence time MRT): 6.7 h | Vd/F (both sexes, SD, rat, plasma, po, 15 mg/kg, repeated intragastric 15 mg/kg, Day 14, read-out: Apparent volume of distribution Vz/F): 1.45 L/kg | AUC (both sexes, SD, rat, plasma, po, 15 mg/kg, repeated intragastric 15 mg/kg, Day 14, read-out: Area under curve AUC): 82900 ng·h/mL | CL/F (both sexes, SD, rat, plasma, po, 15 mg/kg, repeated intragastric 15 mg/kg, Day 14, read-out: Clearance CL/F): 2.98 mL/min/kg | half-life (both sexes, SD, rat, plasma, po, 15 mg/kg, repeated intragastric 15 mg/kg, Day 14, read-out: Half-life T1/2 (converted)): 336 min | Cmax (both sexes, SD, rat, plasma, po, 15 mg/kg, repeated intragastric 15 mg/kg, Day 14, read-out: Plasma concentration Cmax): 14100 ng/mL | MRT (both sexes, SD, rat, plasma, po, 15 mg/kg, repeated intragastric 15 mg/kg, Day 14, read-out: Residence time MRT): 6.4 h | Vd/F (both sexes, SD, rat, plasma, po, 30 mg/kg, repeated intragastric 30 mg/kg, Day 1, read-out: Apparent volume of distribution Vz/F): 2.26 L/kg | AUC (both sexes, SD, rat, plasma, po, 30 mg/kg, repeated intragastric 30 mg/kg, Day 1, read-out: Area under curve AUC): 105000 ng·h/mL | CL/F (both sexes, SD, rat, plasma, po, 30 mg/kg, repeated intragastric 30 mg/kg, Day 1, read-out: Clearance CL/F): 4.72 mL/min/kg | half-life (both sexes, SD, rat, plasma, po, 30 mg/kg, repeated intragastric 30 mg/kg, Day 1, read-out: Half-life T1/2 (converted)): 336 min | Cmax (both sexes, SD, rat, plasma, po, 30 mg/kg, repeated intragastric 30 mg/kg, Day 1, read-out: Plasma concentration Cmax): 18700 ng/mL | MRT (both sexes, SD, rat, plasma, po, 30 mg/kg, repeated intragastric 30 mg/kg, Day 1, read-out: Residence time MRT): 6.4 h | Vd/F (both sexes, SD, rat, plasma, po, 30 mg/kg, repeated intragastric 30 mg/kg, Day 7, read-out: Apparent volume of distribution Vz/F): 2.15 L/kg | AUC (both sexes, SD, rat, plasma, po, 30 mg/kg, repeated intragastric 30 mg/kg, Day 7, read-out: Area under curve AUC): 121000 ng·h/mL | CL/F (both sexes, SD, rat, plasma, po, 30 mg/kg, repeated intragastric 30 mg/kg, Day 7, read-out: Clearance CL/F): 4.14 mL/min/kg | half-life (both sexes, SD, rat, plasma, po, 30 mg/kg, repeated intragastric 30 mg/kg, Day 7, read-out: Half-life T1/2 (converted)): 354 min | Cmax (both sexes, SD, rat, plasma, po, 30 mg/kg, repeated intragastric 30 mg/kg, Day 7, read-out: Plasma concentration Cmax): 21600 ng/mL | MRT (both sexes, SD, rat, plasma, po, 30 mg/kg, repeated intragastric 30 mg/kg, Day 7, read-out: Residence time MRT): 6.7 h | Vd/F (both sexes, SD, rat, plasma, po, 30 mg/kg, repeated intragastric 30 mg/kg, Day 14, read-out: Apparent volume of distribution Vz/F): 1.69 L/kg | AUC (both sexes, SD, rat, plasma, po, 30 mg/kg, repeated intragastric 30 mg/kg, Day 14, read-out: Area under curve AUC): 139000 ng·h/mL | CL/F (both sexes, SD, rat, plasma, po, 30 mg/kg, repeated intragastric 30 mg/kg, Day 14, read-out: Clearance CL/F): 3.52 mL/min/kg | half-life (both sexes, SD, rat, plasma, po, 30 mg/kg, repeated intragastric 30 mg/kg, Day 14, read-out: Half-life T1/2 (converted)): 336 min | Cmax (both sexes, SD, rat, plasma, po, 30 mg/kg, repeated intragastric 30 mg/kg, Day 14, read-out: Plasma concentration Cmax): 20000 ng/mL | MRT (both sexes, SD, rat, plasma, po, 30 mg/kg, repeated intragastric 30 mg/kg, Day 14, read-out: Residence time MRT): 6.9 h
